Here are results for two molecules from patent US20220291235A1, “ACOUSTO-THERMAL SHIFT ASSAY FOR LABEL-FREE PROTEIN ANALYSIS” (THE REGENTS OF THE UNIVERSITY OF COLORADO - A BODY CORPORATE, priority 2019, published 2022).

Assay [1] deals with T1, citrate synthase (CS) from porcine heart (Sus scrofa, UniProt P00889).
T1 construct: citrate synthase (CS) from porcine heart (Millipore Sigma); purchased Millipore Sigma; host or cells: porcine heart
T1 sequence (P00889 28-464): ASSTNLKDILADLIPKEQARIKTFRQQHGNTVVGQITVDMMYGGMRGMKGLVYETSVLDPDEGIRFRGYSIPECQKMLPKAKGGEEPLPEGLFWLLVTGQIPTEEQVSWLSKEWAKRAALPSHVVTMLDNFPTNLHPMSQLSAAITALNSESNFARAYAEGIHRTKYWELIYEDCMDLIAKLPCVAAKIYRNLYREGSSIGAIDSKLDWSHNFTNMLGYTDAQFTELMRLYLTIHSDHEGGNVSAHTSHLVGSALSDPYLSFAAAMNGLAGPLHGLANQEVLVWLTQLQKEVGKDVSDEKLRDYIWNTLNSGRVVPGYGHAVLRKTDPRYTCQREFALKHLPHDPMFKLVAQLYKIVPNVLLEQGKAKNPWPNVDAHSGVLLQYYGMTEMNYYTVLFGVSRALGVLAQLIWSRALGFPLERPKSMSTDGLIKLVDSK
The assay can be described thus: Acousto-thermal shift assay (A-TSA), CS-OAA binding. The following applies: same SAW actuation (19.6 MHz, 3 Watts), CS 15 μM. An excerpt: (§1) Specifically, two identical SAWs were generated by applying an AC (alternating current) signal to a pair of interdigital transducers (IDTs) deposited on the surface of a lithium niobate piezoelectric substrate. A standing SAW was formed within a 1×10 mm^2 polydimethylsiloxane (PDMS) microchannel. The microchannel was bonded on top of a substrate between these two IDTs. See, FIGS. 4A(i) and FIG. 4B. […] Most proteins rapidly precipitate and aggregate after their unfolding. See, FIG. 4A(ii).
(§2) Simultaneously, the standing SAW aggregates and concentrates precipitated protein along the acoustic pressure nodes and/or antinodes. See, FIG. 4A(iii). Gray intensity (Im) of the precipitated and aggregated proteins was analyzed and plotted as a function of SAW time, giving rise to a sigmoidal melting curve. See, FIG. 4A(iv). The melting time (Tm) was determined as the time point when half of proteins were unfolded (i.e. herein, a 50% change of gray intensity occurs where Im=(Imax+Imin)/2.). Using this simple analysis, the time shift Δτm between between two samples can be measured at a given SAW power and analyzed to compare conditions or ligands that stabilize or destabilize proteins. Overall, this new technique provides a rapid, simple and efficient workflow for analysis of changes in apparent melting curves. […]

Assay [2] concerns the target T1, citrate synthase (CS) from porcine heart. Nature of the assay: Conventional thermal shift assay, BCA assay (BCA-TSA), CS-OAA binding. On the procedure: (§3) In some embodiments, SAW-driven protein unfolding and concentration can be used for analysis of protein-ligand binding to analyze the melting temperature (Tm) and its shift (Δtm) upon protein-ligand binding. Gray intensity of the precipitated and concentrated proteins was measured and plotted as a function of SAW time in A-TSA. See, FIG. 5A. Two control conventional TSA methods were performed in parallel measuring the data using either a differential scanning fluorimetry (DSF) assay or a bicinchoninic acid (BCA) assay. DSF, the most popular C-TSA method, utilizes dye fluorescence as a measure of protein unfolding. Matulis et al., “Thermodynamic stability of carbonic anhydrase: measurements of binding affinity and stoichiometry using ThermoFluor” J. Biochemistry 44:5258-5266 (2005). On the other hand, BCA quantifies the amount of remaining soluble proteins after thermal unfolding. Brown et al., “Protein measurement using bicinchoninic acid: elimination of interfering substances” Anal. Biochem. 180:136-139 (1989). BCA assay: For thermal gradient profiling, a gradient program was created using a PTC-200 thermal cycler (MJ Research, Reno, N.V., USA) to cover the temperature points indicated in each figure. A PCR plate was prepared with 25 μL per well of recombinant protein or lysate and sealed (4titude Random Access, PN 4ti-0960/RA 96-well plate). […]

The target is the same in assay [3]. The assay can be described thus: Conventional thermal shift assay, SYPRO DSF assay (DSF-TSA), CS-OAA binding. The following applies: OAA present. As to the method:
In some embodiments, SAW-driven protein unfolding and concentration can be used for analysis of protein-ligand binding to analyze the melting temperature (Tm) and its shift (Δtm) upon protein-ligand binding. Gray intensity of the precipitated and concentrated proteins was measured and plotted as a function of SAW time in A-TSA. See, FIG. 5A. Two control conventional TSA methods were performed in parallel measuring the data using either a differential scanning fluorimetry (DSF) assay or a bicinchoninic acid (BCA) assay. DSF, the most popular C-TSA method, utilizes dye fluorescence as a measure of protein unfolding. Matulis et al., “Thermodynamic stability of carbonic anhydrase: measurements of binding affinity and stoichiometry using ThermoFluor” J. Biochemistry 44:5258-5266 (2005). On the other hand, BCA quantifies the amount of remaining soluble proteins after thermal unfolding. Brown et al., “Protein measurement using bicinchoninic acid: elimination of interfering substances” Anal. Biochem. 180:136-139 (1989).
SYPRO DSF assay: SYPRO Orange melting curves were collected using the 7900HT Fast Real-Time PCR System. […] To analyze melting curves, the fluorescence was normalized to the starting temperature and to no protein controls. The data was then scaled to interval (0,1) and then the replicates were averaged, and standard deviation calculated.

Assay [4] concerns the target T2, human hemoglobin (Hb) (Homo sapiens, UniProt P68871+P69905).
T2 construct: purchased Millipore Sigma
The assay can be described thus: Acousto-thermal shift assay (A-TSA), Hb-Pal binding. Particulars: SAW 19.6 MHz, 3 Watts, Hb 31 μM.
From the text: as §1, §2

For assay [5], the target named is T2, human hemoglobin (Hb). The assay can be described thus: Conventional thermal shift assay, BCA assay (BCA-TSA), Hb-Pal binding. As to the method:
as §3

T2 sequence (P69905 2-142 limits assumed): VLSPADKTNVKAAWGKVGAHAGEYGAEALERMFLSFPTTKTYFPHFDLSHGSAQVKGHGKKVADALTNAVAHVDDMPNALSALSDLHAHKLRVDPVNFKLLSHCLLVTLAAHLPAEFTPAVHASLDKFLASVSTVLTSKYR
T2 sequence (P68871 2-147 limits assumed): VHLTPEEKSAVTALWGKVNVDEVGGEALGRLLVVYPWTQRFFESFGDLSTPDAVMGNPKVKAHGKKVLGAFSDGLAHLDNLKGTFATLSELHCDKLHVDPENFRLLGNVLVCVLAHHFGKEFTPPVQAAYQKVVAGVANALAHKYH

For the molecule `O=C(O)CC(=O)C(=O)O` [OAA, oxaloacetic acid], the “increase of tm of CS (36.23 s) upon ligand binding” value in assay [1] (1 mM OAA) was determined as 10.45 s; in assay [1] (2 mM OAA), 15.77 s. Further, the “increase of Tm of CS (60.3° C.) upon ligand binding” value in assay [2] (1 mM OAA) worked out at 2.0 °C; in assay [2] (2 mM OAA), 2.9 °C. The “tm shift of CS as detected in DSF assay” value in assay [3] is “small and not statistically significant”.
With `COc1cc2c(cc1OC)-c1cc3ccc(OC)c(OC)c3c[n+]1CC2` [Pal, palmatine chloride], the “reduction of melting time (Tm) of Hb (46.85 s) upon ligand binding” value turned out to be 3.52 s on human hemoglobin (Hb) [4] (0.62 mM Pal) and 7.30 s at human hemoglobin (Hb) [4] (1.24 mM Pal). Also, the “decrease of Tm of Hb (59.1° C.) upon ligand binding” value on human hemoglobin (Hb) [5] (0.62 mM Pal) worked out at 0.7 °C; on human hemoglobin (Hb) [5] (1.24 mM Pal), 1.1 °C.
